# According to PubChem BioAssay (NCI):
#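 Following 48 hours of exposure in 96-well plates, responses at five concentrations were used to interpolate endpoints linearly. GI50: concentration for 50% inhibition of growth. At the TGI there is no net growth.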
# What was measured:
# Experiment in all cases: inhibition of tumour cell growth, NCI panel, 48 h
# SW-620 colon = test system: SW-620 colon
# DU-145 prostate = test system: DU-145 prostate
# HCC-2998 colon = test system: HCC-2998 colon
# TK-10 renal = test system: TK-10 renal
# SNB-75 CNS = test system: SNB-75 CNS
# 786-0 renal = test system: 786-0 renal
# MALME-3M melanoma = test system: MALME-3M melanoma
# NCI/ADR-RES ovarian = test system: NCI/ADR-RES ovarian
# K-562 leukemia = test system: K-562 leukemia
# M14 melanoma = test system: M14 melanoma
# HCT-116 colon = test system: HCT-116 colon
# SN12C renal = test system: SN12C renal
# MOLT-4 leukemia = test system: MOLT-4 leukemia
# NCI-H460 lung = test system: NCI-H460 lung
# OVCAR-3 ovarian = test system: OVCAR-3 ovarian
# LOX IMVI melanoma = test system: LOX IMVI melanoma
# PC-3 prostate = test system: PC-3 prostate
# IGROV1 ovarian = test system: IGROV1 ovarian
# UACC-62 melanoma = test system: UACC-62 melanoma
# MCF7 breast = test system: MCF7 breast
# HT29 colon = test system: HT29 colon
# SF-539 CNS = test system: SF-539 CNS
# OVCAR-8 ovarian = test system: OVCAR-8 ovarian
# BT-549 breast = test system: BT-549 breast
# A498 renal = test system: A498 renal
# KM12 colon = test system: KM12 colon
# NCI-H522 lung = test system: NCI-H522 lung
# OVCAR-5 ovarian = test system: OVCAR-5 ovarian
# SNB-19 CNS = test system: SNB-19 CNS
# SK-MEL-5 melanoma = test system: SK-MEL-5 melanoma
# T-47D breast = test system: T-47D breast
# CCRF-CEM leukemia = test system: CCRF-CEM leukemia
# SK-MEL-28 melanoma = test system: SK-MEL-28 melanoma
# HOP-92 NSCLC = test system: HOP-92 NSCLC
# SF-295 CNS = test system: SF-295 CNS
# HCT-15 colon = test system: HCT-15 colon
# UO-31 renal = test system: UO-31 renal
# SK-MEL-2 melanoma = test system: SK-MEL-2 melanoma
# SR leukemia = test system: SR leukemia
# U251 CNS = test system: U251 CNS
# COLO 205 colon = test system: COLO 205 colon
# NCI-H226 lung = test system: NCI-H226 lung
# ACHN renal = test system: ACHN renal
# CAKI-1 renal = test system: CAKI-1 renal
# SF-268 CNS = test system: SF-268 CNS
# HL-60(TB) leukemia = test system: HL-60(TB) leukemia
# RPMI-8226 leukemia = test system: RPMI-8226 leukemia
# MDA-MB-435 = test system: MDA-MB-435
# MDA-MB-231 breast = test system: MDA-MB-231 breast
# OVCAR-4 ovarian = test system: OVCAR-4 ovarian
# EKVX NSCLC = test system: EKVX NSCLC
# HS 578T breast = test system: HS 578T breast
# UACC-257 melanoma = test system: UACC-257 melanoma
# A549 NSCLC = test system: A549 NSCLC
# HOP-62 NSCLC = test system: HOP-62 NSCLC
# SK-OV-3 ovarian = test system: SK-OV-3 ovarian
# RXF 393 renal = test system: RXF 393 renal
# NCI-H23 lung = test system: NCI-H23 lung
structure (smiles),measurement,setting,value
COc1cc2cc(C(=O)CCC(=O)O)sc2cc1OC,GI50,SW-620 colon,> 100 µM
same,TGI,SW-620 colon,> 100 µM
same,GI50,DU-145 prostate,> 100 µM
same,TGI,DU-145 prostate,> 100 µM
same,GI50,HCC-2998 colon,> 100 µM
same,TGI,HCC-2998 colon,> 100 µM
same,GI50,TK-10 renal,> 100 µM
same,TGI,TK-10 renal,> 100 µM
same,GI50,SNB-75 CNS,12.7 µM
same,TGI,SNB-75 CNS,> 100 µM
same,GI50,786-0 renal,> 100 µM
same,TGI,786-0 renal,> 100 µM
same,GI50,MALME-3M melanoma,> 100 µM
same,TGI,MALME-3M melanoma,> 100 µM
same,GI50,NCI/ADR-RES ovarian,> 100 µM
same,TGI,NCI/ADR-RES ovarian,> 100 µM
same,GI50,K-562 leukemia,> 100 µM
same,TGI,K-562 leukemia,> 100 µM
same,GI50,M14 melanoma,> 100 µM
same,TGI,M14 melanoma,> 100 µM
same,GI50,HCT-116 colon,> 100 µM
same,TGI,HCT-116 colon,> 100 µM
same,GI50,SN12C renal,> 100 µM
same,TGI,SN12C renal,> 100 µM
same,GI50,MOLT-4 leukemia,> 100 µM
same,TGI,MOLT-4 leukemia,> 100 µM
same,GI50,NCI-H460 lung,> 100 µM
same,TGI,NCI-H460 lung,> 100 µM
same,GI50,OVCAR-3 ovarian,> 100 µM
same,TGI,OVCAR-3 ovarian,> 100 µM
same,GI50,LOX IMVI melanoma,> 100 µM
same,TGI,LOX IMVI melanoma,> 100 µM
same,GI50,PC-3 prostate,> 100 µM
same,TGI,PC-3 prostate,> 100 µM
same,GI50,IGROV1 ovarian,> 100 µM
same,TGI,IGROV1 ovarian,> 100 µM
same,GI50,UACC-62 melanoma,> 100 µM
same,TGI,UACC-62 melanoma,> 100 µM
same,GI50,MCF7 breast,> 100 µM
same,TGI,MCF7 breast,> 100 µM
same,GI50,HT29 colon,54.6 µM
same,TGI,HT29 colon,> 100 µM
same,GI50,SF-539 CNS,16.5 µM
same,TGI,SF-539 CNS,> 100 µM
same,GI50,OVCAR-8 ovarian,> 100 µM
same,TGI,OVCAR-8 ovarian,> 100 µM
same,GI50,BT-549 breast,> 100 µM
same,TGI,BT-549 breast,> 100 µM
same,GI50,A498 renal,18.7 µM
same,TGI,A498 renal,45.4 µM
same,GI50,KM12 colon,> 100 µM
same,TGI,KM12 colon,> 100 µM
same,GI50,NCI-H522 lung,> 100 µM
same,TGI,NCI-H522 lung,> 100 µM
same,GI50,OVCAR-5 ovarian,> 100 µM
same,TGI,OVCAR-5 ovarian,> 100 µM
same,GI50,SNB-19 CNS,> 100 µM
same,TGI,SNB-19 CNS,> 100 µM
same,GI50,SK-MEL-5 melanoma,> 100 µM
same,TGI,SK-MEL-5 melanoma,> 100 µM
same,GI50,T-47D breast,> 100 µM
same,TGI,T-47D breast,> 100 µM
same,GI50,CCRF-CEM leukemia,> 100 µM
same,TGI,CCRF-CEM leukemia,> 100 µM
same,GI50,SK-MEL-28 melanoma,> 100 µM
same,TGI,SK-MEL-28 melanoma,> 100 µM
same,GI50,HOP-92 NSCLC,37.3 µM
same,TGI,HOP-92 NSCLC,> 100 µM
same,GI50,SF-295 CNS,> 100 µM
same,TGI,SF-295 CNS,> 100 µM
same,GI50,HCT-15 colon,> 100 µM
same,TGI,HCT-15 colon,> 100 µM
same,GI50,UO-31 renal,> 100 µM
same,TGI,UO-31 renal,> 100 µM
same,GI50,SK-MEL-2 melanoma,> 100 µM
same,TGI,SK-MEL-2 melanoma,> 100 µM
same,GI50,SR leukemia,3.53 µM
same,TGI,SR leukemia,> 100 µM
same,GI50,U251 CNS,> 100 µM
same,TGI,U251 CNS,> 100 µM
same,GI50,COLO 205 colon,> 100 µM
same,TGI,COLO 205 colon,> 100 µM
same,GI50,NCI-H226 lung,47.4 µM
same,TGI,NCI-H226 lung,> 100 µM
same,GI50,ACHN renal,> 100 µM
same,TGI,ACHN renal,> 100 µM
same,GI50,CAKI-1 renal,> 100 µM
same,TGI,CAKI-1 renal,> 100 µM
same,GI50,SF-268 CNS,> 100 µM
same,TGI,SF-268 CNS,> 100 µM
same,GI50,HL-60(TB) leukemia,28.3 µM
same,TGI,HL-60(TB) leukemia,> 100 µM
same,GI50,RPMI-8226 leukemia,> 100 µM
same,TGI,RPMI-8226 leukemia,> 100 µM
same,GI50,MDA-MB-435,> 100 µM
same,TGI,MDA-MB-435,> 100 µM
same,GI50,MDA-MB-231 breast,> 100 µM
same,TGI,MDA-MB-231 breast,> 100 µM
same,GI50,OVCAR-4 ovarian,> 100 µM
same,TGI,OVCAR-4 ovarian,> 100 µM
same,GI50,EKVX NSCLC,> 100 µM
same,TGI,EKVX NSCLC,> 100 µM
same,GI50,HS 578T breast,> 100 µM
same,TGI,HS 578T breast,> 100 µM
same,GI50,UACC-257 melanoma,33.4 µM
same,TGI,UACC-257 melanoma,> 100 µM
same,GI50,A549 NSCLC,> 100 µM
same,TGI,A549 NSCLC,> 100 µM
same,GI50,HOP-62 NSCLC,> 100 µM
same,TGI,HOP-62 NSCLC,> 100 µM
same,GI50,SK-OV-3 ovarian,62.4 µM
same,TGI,SK-OV-3 ovarian,> 100 µM
same,GI50,RXF 393 renal,33.4 µM
same,TGI,RXF 393 renal,> 100 µM
same,GI50,NCI-H23 lung,> 100 µM
same,TGI,NCI-H23 lung,> 100 µM
